By inhibition in vivo is commonly meant the percentage by which the read-out fell short of the control. Low values mean a response near the control, high ones a response far below the control.

One test has as its system passive cutaneous anaphylactic reaction (PCA). Kind of test: Inhibition of passive cutaneous anaphylaxis (PCA) in rats, reaginic antibody to egg albumin. It is filed as in vivo, rat. To be noted: Rattus norvegicus, po; dose 3.0 mg/kg (table head: p.o.; method b438: intravenously immediately before the antigen); rats, 6 animals per dose.
`Cc1c(C)c2ccc(OCCCN3CCC(NC(=O)c4ccccc4)CC3)cc2oc1=O` [Example 1, 7-[3-(4-Benzamido-piperidino)-propoxy]-3,4-dimethylcoumarin]: the inhibition in vivo at 3 mg/kg was determined as 50%.
The same measure, in the same setting: for `Cc1c(C)c2ccc(OCCCN3CCC(NC(=O)c4ccc(F)cc4)CC3)cc2oc1=O` [Example 2a, 3,4-Dimethyl-7-{3-[4-(4-fluoro-benzamido)-piperidino]-propoxy}-coumarin] the value was 59%.
Same read-out and setting: then `Cc1cc(=O)n(C)c2ccc(OCCCN3CCC(NC(=O)c4ccccc4)CC3)cc12` [Example 10, 6-[3-(4-Benzamido-piperidino)-propoxy]-1,4-dimethyl-2-oxo-1,2-dihydroquinoline], with 54%; and `COc1ccc(C(=O)NC2CCN(CCCOc3ccc4c(C)c(C)c(=O)oc4c3)CC2)cc1` [Example 2b, 3,4-Dimethyl-7-{3-[4-(4-methoxy-benzamido)-piperidino]-propoxy}-coumarin], with 36%; and `Cc1c(C)c2ccc(OCCCN3CCC(NC(=O)c4ccc(Cl)cc4)CC3)cc2oc1=O` [Example 6, 7-{3-[4-(4-Chlorobenzamido)-piperidino]-propoxy}-3,4-dimethylcoumarin], with 30%.
Still for that read-out and setting: for `Cc1c(C)c2ccc(OCCCN3CCC(NC(=O)c4cccs4)CC3)cc2oc1=O` [Example 7b] the value was 23%; for `Cc1cc(=O)[nH]c2ccc(OCCCN3CCC(NC(=O)c4ccccc4)CC3)cc12` [Example 8, 6-[3-(4-Benzamido-piperidino)-propoxy]-4-methyl-2-oxo-1,2-dihydroquinoline], 34%; for `Cc1c(C)c2ccc(OCCCN3CCC(NC(=O)c4ccc(C(C)(C)C)cc4)CC3)cc2oc1=O` [Example 2d, 7-{3-[4-(4-t.-Butyl-benzamido)-piperidino]-propoxy}-3,4-dimethyl-coumarin], 52%.
Compound `Cc1cc(=O)oc2ccc(OCCCN3CCC(NC(=O)c4ccccc4)CC3)cc12` [Example 4a, 6-[3-(4-Benzamido-piperidino)-propoxy]-4-methyl-coumarin] registered an inhibition in vivo at 3 mg/kg of 61%.

Staying with this test, now noted: Rattus norvegicus, po; dose 100.0 mg/kg (table head: p.o.; method b438: intravenously immediately before the antigen); rats, 6 animals per dose; comparison compound.
The compound `CCN(CC)C(=O)N1CCN(C)CC1` [Diethylcarbamazin, 1-diethylcarbamoyl-4-methylpiperazine, reference compound] had an inhibition in vivo at 100 mg/kg of 47%.

The same test, now with this note: relative to 7-[3-(4-benzamido-piperidino)-propoxy]-3,4-dimethylcoumarin (Example 1); PCA test in vivo in rats.
With `CCN(CC)C(=O)N1CCN(C)CC1` [Diethylcarbamazin, 1-diethylcarbamoyl-4-methylpiperazine, reference compound], the “times more substance that must be used than of 7-[3-(4-benzamido-piperidino)-propoxy]-3,4-dimethylcoumarin for comparable inhibition of the passive cutaneous anaphylactoid reaction” value is recorded as “about 40 times”.

For the origin of these results see patent US4330549A, “Coumarins connected via an oxyalkyl group with a piperidine ring having anti-allergic action” (Boehringer Mannheim GmbH, priority 1979, dated 1982).
